Test results: patent US4374845A, “1-(7-Carboxy-2-octynyl)imidazole derivatives, pharmaceutical compositions and use” (Kissei Pharmaceutical Co., priority 1980, dated 1983)
Structures can show the parent of a compound that is named as a salt.

Target: T1, thromboxane synthetase from rabbit platelet microsomes (Oryctolagus cuniculus, UniProt G1TAZ9)
T1 construct: thromboxane synthetase from rabbit platelet microsomes; from tissue; host or cells: rabbit platelet microsomes
T1 sequence (G1TAZ9 1-530): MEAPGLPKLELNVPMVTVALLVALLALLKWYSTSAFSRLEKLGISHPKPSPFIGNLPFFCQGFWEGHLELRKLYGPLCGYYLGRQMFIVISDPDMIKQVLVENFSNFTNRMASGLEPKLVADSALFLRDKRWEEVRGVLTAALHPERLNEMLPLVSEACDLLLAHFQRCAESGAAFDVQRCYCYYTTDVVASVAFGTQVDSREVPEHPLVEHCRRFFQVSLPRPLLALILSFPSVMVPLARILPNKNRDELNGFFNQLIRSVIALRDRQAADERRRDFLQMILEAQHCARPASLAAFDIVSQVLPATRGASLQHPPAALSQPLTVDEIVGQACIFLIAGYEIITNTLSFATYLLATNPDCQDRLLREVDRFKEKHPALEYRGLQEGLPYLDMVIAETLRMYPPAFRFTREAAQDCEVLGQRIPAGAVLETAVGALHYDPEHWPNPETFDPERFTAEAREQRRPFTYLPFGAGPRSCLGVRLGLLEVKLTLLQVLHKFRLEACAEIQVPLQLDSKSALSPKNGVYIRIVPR
Experiment: inhibition of thromboxane synthetase from rabbit platelet microsomes
Assay type: biochemical
Details: standard laboratory tests, read-out: molar concentration producing 50% inhibition of thromboxane synthetase
Source text: For example, in standard laboratory tests, 1-(7-carboxy-7-methyl-2-octynyl)imidazole hydrochloride produce a 50% inhibition of thromboxane synthetase from rabbit platelet microsomes at the molar concentrations of 9×10^-9.

IC50: 9 nM
SMILES: CC(C)(CCCC#CCn1ccnc1)C(=O)O [Example 2, 1-(7-carboxy-7-methyl-2-octynyl)imidazole hydrochloride]
